# Assay: gradient 5% acetonitrile 3 min, to 50% in 2 min, to 85% in 15 min, held 3 min, 100 µL/min
# Conditions: column: Zorbax Extend-C18 2.1 x 50 mm; eluents: water / acetonitrile, 0.1% formic acid
# Summary of the method: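 Data were gathered over 3 months by HPLC coupled to a quadrupole time-of-flight mass spectrometer, operated in positive and negative ionization mode. Mixtures of ~100 pure standards ran on a Zorbax Extend-C18 column (2.1 × 50 mm, 1.8 μm) at 100 μL/min, with water and acetonitrile each containing 0.1% formic acid and dead and dwell volumes of 40 μL and 900 μL. Retention time was read from adduct peaks picked by computer and checked manually.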
row,RP-LC retention time [s],Compound
1,731,COc1ccc(-n2cc(C(=O)O)c3c2C(C(F)(F)F)CC(=O)N3)c(OC)c1 (stereo unspecified)
2,793,CCc1nnc(-c2ccc3ccn(CC(=O)NCc4cc(OC)ccc4OC)c3c2)o1
3,646,CCN(CCNC(=O)c1cc(=O)n(C)c2c1c(=O)n(C)c(=O)n2C)Cc1ccccc1
4,665,CCOc1ccccc1C(=O)N1CCC(C(=O)NCC(F)(F)F)CC1
5,859,COc1ccccc1NC(=O)Cn1nc2c(Oc3ccc(Cl)cc3)nccn2c1=O
6,634,O=C1CSCc2nc3ccccc3n21
7,622,Cc1ccccc1NC(=O)N1CC(F)(F)C[C@H]1CN1CCCC1
8,1080,CCCCOC(=O)C1=CN(Cc2ccccc2)S(=O)(=O)N=C1C
9,574,O=C(NCCN1CCCC1)c1cccc(-c2ccc(N3CCCCCC3)nc2)c1
10,655,CC(C)(CO)NCc1ccc(-c2ccc(Cl)cc2)o1
11,1100,O=C(Cn1cccc1-c1nc(-c2ccc(Cl)cc2)cs1)N1CCN(c2ncccn2)CC1
12,673,O=C(NCCc1n[nH]c(Cc2cccc(F)c2)n1)c1ccc2c(c1)OCO2
13,1110,COc1ccc(NS(=O)(=O)c2c(C)sc(C)c2-c2cc(C(F)(F)F)on2)cc1
14,844,CCN1CCN(Cc2ccc(NC(=O)c3ccc(C)c(NC(=O)c4cncc(-c5cccs5)c4)c3)cc2C(F)(F)F)CC1
15,682,O=C(NCC1CCN(C(=O)Nc2ccc(F)cc2)CC1)c1ccsc1
16,1020,CC(C)Oc1ccc(-c2noc(CN3N=NC4C(=O)N(c5ccccc5)C(=O)C43)n2)cc1 (stereo unspecified)
17,798,COC(=O)c1c(C)[nH]c(C(=O)N2CCCC(C(=O)NCc3cccc(Cl)c3)C2)c1C (stereo unspecified)
18,945,CCCCN(CC)c1nc(C)nc2c1c(C)cn2-c1c(C)cc(C)cc1C
19,1050,Cn1cc(S(=O)(=O)N2CCCCC2)cc1C(=O)N1CCN(c2cccc(Cl)c2)CC1
20,872,Cc1ccc(-c2nc(N)n(C(=O)C3CC3)n2)cc1
21,690,O=C(Nc1ccc2c(c1)OCO2)C1CCN(c2cnc3nccnc3c2)CC1
22,814,CN(Cc1ccccc1)C(=O)CCNc1c(-c2cccc(F)c2)nc2cnccn12

row,RP-LC retention time [s],Compound
1,882,COC(=O)c1sccc1S(=O)(=O)Nc1ccc(CC(=O)N2CCC(O)CC2)cc1
2,1260,CCCN(C(=O)c1ccc2c(c1)OCO2)c1nc(-c2ccccc2)cs1
3,801,CC(=O)N1c2ccc(S(=O)(=O)NCc3ccc4c(c3)CCN4C(=O)C(C)C)cc2CC1C (stereo unspecified)
4,650,Cc1noc(CNC(=O)C2CCN(C(=O)c3csc(-c4ccccc4)n3)CC2)n1
5,906,Cc1ccc2[nH]cc(CCNC(=O)C(C)n3c4ccccc4c4cnn(C)c(=O)c43)c2c1 (stereo unspecified)
6,578,O=C(NCCCN1CCCC1=O)C(=O)Nc1nccs1
7,725,COCCN1CCn2cc(S(=O)(=O)Nc3ccc(F)cc3Cl)cc2C1=O
8,1010,COc1cccc(NC(=O)Cn2nc3cc(C)nc(Nc4ccccc4C)n3c2=O)c1
9,696,CCc1nnc([C@@H]2CC(F)(F)CN2S(=O)(=O)c2ccc(C)cc2)o1
10,780,COc1ccc(S(=O)(=O)N2CCCC(C(=O)NC3CC3)C2)cc1Cl (stereo unspecified)
11,778,CC1=C(c2ccccc2)S(=O)(=O)N=C1N1CCCN(C(=O)NC2CCCC2)CC1
12,734,COc1ccc(NC(=O)Cn2nc3nc(N4CCCC(C)C4)ccn3c2=O)cc1 (stereo unspecified)
13,813,CCc1ccc(S(=O)(=O)N2CCC(c3cc(N)on3)CC2)cc1
14,844,Cc1cc(N2CCN(S(=O)(=O)c3cccc(Cl)c3)CC2)nc(NC2CCCCC2)n1
15,870,O=C(OCc1ccc([N+](=O)[O-])cc1)c1ccc(S(=O)(=O)NCC2CCCO2)cc1 (stereo unspecified)
16,822,Clc1ccc(-c2nc(N3CCC4(CC3)OCCO4)c3ccccc3n2)cc1
17,686,COc1ccc(-c2n[nH]c3c2C(c2cccc(O)c2)N(C)C3=O)cc1 (stereo unspecified)
18,785,O=C1CCCc2c1cc(C(=O)Nc1ccc(F)cc1F)c(=O)n2-c1ccc(F)cc1
19,685,O=C(NCCn1nc(-c2cccs2)ccc1=O)c1ccc(-n2cccn2)nn1
20,669,Nc1nc(CN2CCN(c3ccccn3)CC2)nc(Nc2ccc(Oc3ccccc3)cc2)n1
21,572,CNC(=O)N1C[C@@H](CN(C)C)[C@H](NC(=O)C2(c3ccc(OC)cc3)CC2)C1
22,1090,Cc1ccccc1-c1nc(C2CC(=O)N(c3ccc(Cl)cc3)C2)no1 (stereo unspecified)

row,RP-LC retention time [s],Compound
1,1140,CCN(CC)S(=O)(=O)c1cc(-c2nnc(-c3ccc(OC)cc3)o2)ccc1Cl
2,586,O=C(C1CCN(c2ncnc3c2sc2ncccc23)CC1)N1CCN(c2ccccn2)CC1
3,852,Cc1cc(C(F)F)n2nc(C(=O)Nc3cc(F)ccc3C)nc2n1
4,775,Cc1c(Cl)cccc1S(=O)(=O)Nc1ccc(Cn2cncn2)cc1
5,737,Cc1c(S(=O)(=O)CCNC(=O)NCc2ccc(F)cc2)c2ccccc2n1C
6,953,Cc1ccc(N2CCC(NC(=O)c3ccc(C(F)(F)F)cc3)C2=O)cc1 (stereo unspecified)
7,694,CN(C)c1cc(C(N)=O)c2ccccc2n1
8,677,Cc1nn(C)c(C)c1CCNC(=O)Nc1cccc(Br)c1
9,898,O=C(Nc1ccc2c(c1)OCCO2)N1CCc2nc(-c3ccc(F)cc3)ncc2C1
10,1160,CCOc1cccc(-c2noc(Cc3nnc(-c4cccc(Br)c4)o3)n2)c1
11,582,CCC(=O)Nc1ccc(CCc2nc3ccc(C(=O)NC4CC4)cc3[nH]2)cc1
12,867,COC(=O)c1cc(S(=O)(=O)N2CCCC2C(=O)Nc2cc(OC)cc(OC)c2)cn1C (stereo unspecified)
13,755,Cn1cc(CCNS(=O)(=O)c2ccc(F)cc2Cl)c2cccnc21
14,1000,CSc1ccccc1NC(=O)CCCn1cccc1
15,720,Cc1nnc(N2CCCC(C(=O)NCCc3cccs3)C2)c2nn(-c3ccccc3)c(C)c12 (stereo unspecified)
16,785,COc1cccc(OC)c1C(=O)Nc1nc(-c2ccc3c(c2)NC(=O)CO3)c(C)s1
17,1160,O=C(NCc1ccc(F)cc1)c1nnc(-c2ccc(S(=O)(=O)N3CCCCC3)cc2)o1
18,1190,O=c1c2cc(-c3ccc(F)cc3)nn2cnn1Cc1nc(-c2ccc(Cl)cc2)no1
19,790,CCCCNC(=O)Cn1cccc(-c2nc(-c3ccc(F)cc3)no2)c1=O
20,1020,CSc1ccc(-c2noc(Cn3c(=O)n(-c4ccccc4)c(=O)c4sccc43)n2)cc1
21,990,CC(C)CNC(=O)CCc1nc2ccccc2n(CC(=O)N2CCCc3ccccc32)c1=O
22,566,O=C(c1cccs1)N1CC(C(=O)N2CCC(O)CC2)C1

# Source: the METLIN SMRT retention time set (Domingo-Almenara et al. 2019)
